# d = 2'-deoxy (DNA); r = 2'-OH (RNA)
# Tested on: MG63 cells
# Test: Flow cytometry uptake kinetics and ODN2006 blocking in MG63 cells
# Type: cell-based, human
# Method: To determine cpRNA cellular uptake kinetics, FACS experiments were repeated as mentioned above using MG63 cells, where Cy3-cpRNA was treated for different time points. Briefly, Cy3-cpRNA (50 nM) was added to cells, followed by incubation for 0.5 h, 1 h, 1.5 h, 2 h, 3 h and 4 h respectively. The cells were subsequently trypsinised and analyzed by FACS as mentioned above.
# To perform […] blocking studies, seeded MG63 cells were incubated with 600 nM 3′-FITC labeled ODN2006 for 1 h, followed by addition of 50 nM cpRNA. Cells were incubated for additional 0.5 h, 1 h, 1.5 h, 2 h, 3 h and 4 h respectively, trypsinised and analyzed by FACS analysis as mentioned above.
# To verify if the uptake mechanism of cpRNA was analogous to viral RNA and the RNA mimic polyriboinosinic:polyribocytidylic acid or poly(I:C), blocking studies were performed using the Btype single-stranded DNA sequence ODN2006 which share a common uptake receptor. This synthetic phosphorothioate modified oligo, though initially identified as a TLR9 agonist, blocks cellular uptake of viral RNA and poly(I:C) by preferentially competing with the common RNA uptake receptor. Blocking experiment were performed by pre-incubating the cells with FITC labeled ODN2006 for 1 h, followed by the addition of Cy3-labeled cpRNA. The blocking studies and cellular uptake was monitored using FACS analysis at different time points for up to 4 h. As a control experiment, the uptake kinetics was performed in the absence of FITC labeled ODN2006. […] These experiments verified the involvement of an alternate uptake mechanism and indicated the presence of a ubiquitous RNA capture receptor that required ˜1 h of maturation time before the endocytosis process could initiate.
substance,measurement,setting,value
"dT5: GAPDH siRNA, sense SEQ ID NO: 3 with dT5 3′-overhang, antisense SEQ ID NO: 2 with dT2 (sense CCGAGCCACAUCGCUCAGATTTTT; antisense UCUGAGCGAUGUGGCUCGGTT; sense: sugars from the 5' end r19 d5, backbone not given here; antisense: sugars from the 5' end r19 d2, backbone not given here)",effect of ODN2006 on cellular uptake,MG63 cells pre-incubated 1 h with 600 nM FITC labeled ODN2006,did not inhibit uptake
same,time after which cellular uptake was initiated,"MG63 cells, 50 nM, 37° C.",~1 h
same,time in which uptake finished after initiation,"MG63 cells, 50 nM, 37° C.",2 h
